Measured values reported in patent US20120015352A1, “METHOD OF DETERMINING SENSITIVITY OF HUMAN OR NON-HUMAN ANIMAL CELLS TO AN IAP ANTAGONIST” (Otto-von-Guericke-Universitat Magdeburg, priority 2009, published 2012).
Residues, ends and D or L forms follow the SMILES beside them. *: point of attachment. Cbz = O=C(OCc1ccccc1)*; CH2F = FC*

Key:
[1] = test system: A5-RT3 cells; experiment: Cytotoxicity assay (crystal violet); assay type: cell-based, human
Experimental: (§1) Cytotoxicity assay. Crystal violet staining of attached, living cells was performed 20-24 h after stimulation with the indicated concentrations of TRAIL or CD95L in 96 well plates in triplicate wells per condition as described^37. The optical density (OD) of control cultures was normalized to 100% compared to stimulated cells. For statistical analysis the standard error of mean (SEM) was determined for 3-7 independent experiments of each cell line and stimulatory condition.

[2] = test system: HaCaT cells; experiment: Cytotoxicity assay (crystal violet); assay type: cell-based, human
Experimental: as §1

[3] = test system: HaCaT cells; experiment: Immunofluorescence microscopy (Hoechst 33342, nuclear morphology); assay type: cell-based, human; conditions: zVAD-fmk 10 μM; for protection from cell death: CD95L 24 hrs
Experimental: Immunofluorescence microscopy. For detection of nuclear morphology, 5×10^4 cells of the respective cells were seeded per well in a 12-well plate. Subsequently, cells were incubated with Hoechst 33342 (5 μg/ml) for 15 min at 37° C. immediately followed by phase contrast or fluorescence microscopy using a suitable instrument (Leica). Digital images were identically processed using appropriate software.

[4] = target: T1, TRAF2 (human, UniProt Q12933 2-501); experiment: CD95L-Fc ligand affinity precipitation of the CD95 DISC, Western blot
T1 construct: Endogenous protein
T1 sequence (looked up): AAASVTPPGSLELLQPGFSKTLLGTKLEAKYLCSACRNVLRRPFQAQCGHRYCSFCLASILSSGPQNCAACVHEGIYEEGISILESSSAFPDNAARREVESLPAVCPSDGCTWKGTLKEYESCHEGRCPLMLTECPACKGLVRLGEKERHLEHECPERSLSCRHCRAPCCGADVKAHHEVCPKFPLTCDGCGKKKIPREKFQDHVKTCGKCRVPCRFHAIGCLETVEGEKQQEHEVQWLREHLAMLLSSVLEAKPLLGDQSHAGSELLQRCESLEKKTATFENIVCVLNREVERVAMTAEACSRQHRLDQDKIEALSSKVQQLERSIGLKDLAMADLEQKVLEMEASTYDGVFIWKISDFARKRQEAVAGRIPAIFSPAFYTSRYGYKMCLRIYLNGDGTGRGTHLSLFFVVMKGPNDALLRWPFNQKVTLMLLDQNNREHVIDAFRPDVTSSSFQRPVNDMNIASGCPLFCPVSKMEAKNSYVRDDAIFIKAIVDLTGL
Experimental: (§2) Ligand affinity precipitation of Receptor complexes. For the precipitation of the CD95L DISC, 5×10⁶ cells were used for each condition. Cells were washed once with medium at 37° C. and subsequently preincubated for 1 h with 10 μM zVAD-fmk and, as indicated with 100 nM IAP inhibitor at 37° C. Subsequently cells were treated with 250 units/ml CD95L-Fc for 2 h or, for the unstimulated control, in the absence of ligands. Receptor complex formation was stopped by washing the monolayer four times with ice-cold PBS. Cells were lysed on ice by addition of 2 ml lysis buffer (30 mM Tris-HCl pH 7.5 at 21° C., 120 mM NaCl, 10% Glycerol, 1% Triton X-100, Complete® protease inhibitor cocktail (Roche Molecular Diagnostics, Mannheim, Germany)). After 30 min lysis on ice, the lysates were centrifuged two times at 20,000×g for 5 min and 30 min, respectively, to remove cellular debris. A minor fraction of these clear lysates were used to control for the input of the respective proteins. For the precipitation of the CD95 receptor and stimulation-dependent recruited proteins, Apo-1 IgG3 antibodies (kindly provided by P. H. Krammer) were added to the lysates prepared from non-stimulated as well as stimulated cells to precipitate the receptor-interacting proteins. […]

[5] = target: T2, RIP1 (human, UniProt Q13546 1-671); experiment: CD95L-Fc ligand affinity precipitation of the DISC from control-infected HaCaT cells, Western blot
T2 construct: Endogenous protein; also called kinase RIP1; full length RIP1
T2 sequence (looked up): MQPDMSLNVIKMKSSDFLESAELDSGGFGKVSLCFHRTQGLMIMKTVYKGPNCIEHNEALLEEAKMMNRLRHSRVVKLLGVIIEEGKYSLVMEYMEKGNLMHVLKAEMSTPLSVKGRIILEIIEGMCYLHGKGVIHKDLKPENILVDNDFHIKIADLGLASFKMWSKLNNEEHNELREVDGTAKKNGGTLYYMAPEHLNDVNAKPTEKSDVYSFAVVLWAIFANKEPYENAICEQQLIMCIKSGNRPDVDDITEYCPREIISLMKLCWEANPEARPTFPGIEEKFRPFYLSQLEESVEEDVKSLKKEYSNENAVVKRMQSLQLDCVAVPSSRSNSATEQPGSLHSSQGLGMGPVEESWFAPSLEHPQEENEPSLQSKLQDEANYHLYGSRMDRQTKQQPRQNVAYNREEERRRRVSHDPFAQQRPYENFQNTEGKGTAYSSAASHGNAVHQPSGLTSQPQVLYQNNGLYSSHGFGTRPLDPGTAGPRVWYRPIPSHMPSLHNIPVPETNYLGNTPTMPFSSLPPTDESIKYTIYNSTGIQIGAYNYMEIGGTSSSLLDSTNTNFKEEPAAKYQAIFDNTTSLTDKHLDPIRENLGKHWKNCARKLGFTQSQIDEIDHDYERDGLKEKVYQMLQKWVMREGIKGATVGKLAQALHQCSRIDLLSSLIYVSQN
Experimental: as §2

[6] = test system: A375 melanoma cells; experiment: Fc-CD95L unit determination (killing of cells); assay type: cell-based; conditions: one unit = 1:500 dilution of stock Fc-CD95L supernatant
Experimental: Materials. […] B-actin Abs were from a suitable source. His-FLAG-TRAIL (HF-TRAIL) was produced as recently described^17. For expression of Fc-CD95L we used a construct recently published^57 (kindly provided by P. Schneider, Epalinges, Switzerland). One unit of Fc-CD95L was determined as a 1:500 dilution of the stock Fc-CD95L supernatant, and one unit/ml of Fc-CD95L supernatant was sufficient to kill 50 percent (LD50) of A375 melanoma cells, as recently described^58. […] Horseradish peroxidase (HRP)-conjugated goat anti-rabbit, goat anti rat IgG, goat anti-mouse IgG Abs and HRP-conjugated goat anti-mouse IgG1, IgG2a, IgG2b, and IgG1κ were obtained from Southern Biotechnology Associates (Birmingham, Ala.). TRAIL-R1 (HS 101), TRAIL-R2 (HS 201), mAbs for FACScan analysis of surface receptor expression were used as previously described^26 and are available from Alexis (San Diego, Calif.). CD95 Abs (Apo-1 IgG1 and IgG3a) were kindly provided by P. H. Krammer (German Cancer Research Center, Heidelberg, Germany). Cy5-conjugated Annexin V was purchased from Pharmingen (Hamburg, Germany). The IAP inhibitor (compound A) was provided by Tetralogic Pharmaceuticals (Malvern, Pa., USA). Compound A is exemplified in US20060194741, which is incorporated in its entirety by reference herein, and Compound A has the following structure: […]

[7] = target: T1, TRAF2; experiment: caspase-8 co-immunoprecipitation (complex II), Western blot

## COC(=O)C[C@H](NC(=O)[C@H](C)NC(=O)[C@@H](NC(=O)OCc1ccccc1)C(C)C)C(=O)CF [zVAD-fmk] (Cbz-Val-Ala-Asp(OMe)-CH2F)
[1]; cFLIP-downregulated cells insensitive to IAP inhibitor, zVAD-fmk
  protection from death ligand-mediated cell death: fully protected
[2]; cFLIPS-expressing HaCaT, IAP inhibitor + CD95L, zVAD-fmk 10 μM
  protection from death receptor-mediated cell death: not protected
[2]; zVAD-fmk 10 μM, in the presence of IAP inhibitor 100 nM
  block of TRAIL- or CD95L-mediated cell death: only partially blocked
[2]; zVAD-fmk 10 μM, without IAP inhibitor, 24 hrs
  block of TRAIL- or CD95L-mediated cell death: fully blocked cell death
[3]; CD95L 4 hrs, in the presence of IAP inhibitor
  protection of cellular morphology or DNA fragmentation: fully protected
[3]; in the presence of IAPs (no IAP inhibitor)
  protection from cell death: complete protection
[3]; with IAP inhibitor
  protection from cell death: did not protect

## CN1C(=O)C(Cc2c[nH]c3ccccc23)NC1=S (stereo not drawn) [necrostatin-1]
[1]; cFLIP-shRNA A5-RT3 cells, necrostatin-1 50 μM, IAP inhibitor, CD95L
  protection from death ligand-mediated cell death: ineffective
[2]; cFLIPS-expressing HaCaT, IAP inhibitor + CD95L, necrostatin-1 50 μM, 24 hrs
  protection from CD95L-mediated cell death: fully protected
[2]; necrostatin-1 50 μM added to zVAD-fmk-protected cells, IAP inhibitor 100 nM
  protection from TRAIL- or CD95L-mediated cell death: fully recovered viability
[2]; necrostatin-1 50 μM alone, no caspase inhibitor, IAP inhibitor 100 nM
  protection from death ligand-mediated cell death: ineffective

B1: CD95 (receptor, human, UniProt P25445 26-335, looked up)
chain: QVTDINSKGLELRKTVTTVETQNLEGLHHDGQFCHKPCPPGERKARDCTVNGDEPDCVPCQEGKEYTDKAHFSSKCRRCRLCDEGHGLEVEINCTRTQNTKCRCKPNFFCNSTVCEHCDPCTKCEHGIIKECTLTSNTKCKEEGSRSNLGWLCLLLLPIPLIVWVKRKEVQKTCRKHRKENQGSHESPTLNPETVAINLSDVDLSKYITTIAGVMTLSQVKGFVRKNGVNEAKIDEIKNDNVQDTAEQKVQLLRNWHQLHGKKEAYDTLIKDLKKANLCTLAEKIQTIILKDITSDSENSNFRNEIQSLV
notes: whole, on cells; recruitment to it may be indirect (through FADD); also called CD95 DISC; CD95 receptor
[4]
  binding result: no binding
[5]
  binding result: binds

B2: Fc-CD95L: Fc-CD95L supernatant expressed from a published construct; death ligand (protein)
chain: EKKELRKVAHLTGKSNSRSMPLEWEDTYGIVLLSGVKYKKGGLVINETGLYFVYSKVYFRGQSCNNLPLSHKVYMRNSKYPQDLVMMEGKMMSYCTTGQMWARSSYLGAVFNLTSADHLYVNVSELSLVNFEESQTFFGLYKL
modifications: left off: a dimerising Fc or GST
notes: Fc-CD95L supernatant expressed from a published construct; death ligand
[6]
  LD50 (kill 50 percent of cells): one

B3: caspase-8 (enzyme, human, UniProt Q14790 1-479, looked up)
chain: MDFSRNLYDIGEQLDSEDLASLKFLSLDYIPQRKQEPIKDALMLFQRLQEKRMLEESNLSFLKELLFRINRLDLLITYLNTRKEEMERELQTPGRAQISAYRVMLYQISEEVSRSELRSFKFLLQEEISKCKLDDDMNLLDIFIEMEKRVILGEGKLDILKRVCAQINKSLLKIINDYEEFSKERSSSLEGSPDEFSNGEELCGVMTISDSPREQDSESQTLDKVYQMKSKPRGYCLIINNHNFAKAREKVPKLHSIRDRNGTHLDAGALTTTFEELHFEIKPHDDCTVEQIYEILKIYQLMDHSNMDCFICCILSHGDKGIIYGTDGQEAPIYELTSQFTGLKCPSLAGKPKVFFIQACQGDNYQKGIPVETDSEEQPYLEMDLSSPQTRYIPDEADFLLGMATVNNCVSYRNPAEGTWYIQSLCQSLRERCPRGDDILTILTEVNYEVSNKDDKKNMGKQMPQPTFTLRKKLVFPSD
notes: Endogenous protein in cell lysates; also called caspase-8 p43/41 (cleaved form seen in the DISC)
[7]
  binding result: no binding
